Molecules are shown by their SMILES. Structures can show the parent of a compound that is named as a salt.

human factor Xa (FXa), sequence (P00742 235-488 limits assumed): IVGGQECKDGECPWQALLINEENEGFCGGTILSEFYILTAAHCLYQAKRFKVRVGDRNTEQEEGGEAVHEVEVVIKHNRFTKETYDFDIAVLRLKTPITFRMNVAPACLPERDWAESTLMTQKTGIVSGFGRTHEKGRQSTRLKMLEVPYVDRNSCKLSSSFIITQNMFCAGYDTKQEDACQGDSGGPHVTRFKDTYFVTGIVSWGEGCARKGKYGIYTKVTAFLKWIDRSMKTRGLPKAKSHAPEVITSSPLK
human factor Xa (FXa), sequence (P00742 41-179 partner limits assumed): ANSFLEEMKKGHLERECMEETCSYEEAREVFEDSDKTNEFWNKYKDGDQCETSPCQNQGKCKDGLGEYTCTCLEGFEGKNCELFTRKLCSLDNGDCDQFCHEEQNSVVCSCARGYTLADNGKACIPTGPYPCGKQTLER

The target of the experiment is human factor Xa (FXa) (Homo sapiens, UniProt P00742). Put plainly: Determination of the factor Xa inhibition (chromogenic substrate). The format is biochemical. The settings on record: human FXa 0.5 nmol/l, 150 μmol/l Pefachrome FXa, 25° C., extinction at 405 nm. The protocol: a. 1) Determination of the Factor Xa Inhibition:
The enzymatic action of human factor Xa (FXa) is measured using the conversion of a chromogenic substrate specific for FXa. Factor Xa cleaves p-nitroaniline from the chromogenic substrate. The determinations are carried out in microtiter plates as follows:
The test substances, in various concentrations, are dissolved in DMSO and incubated for 10 minutes at 25° C. with human FXa (0.5 nmol/l dissolved in 50 mmol/l of tris buffer [C,C,C-tris(hydroxymethyl)aminomethane], 150 mmol/l of NaCl, 0.1% BSA [bovine serum albumin], pH=8.3). Pure DMSO is used as control. The chromogenic substrate (150 μmol/l Pefachrome® FXa from Pentapharm) is then added. After an incubation time of 20 minutes at 25° C., the extinction at 405 nm is determined.
In the case of `O=C(O)COCCNc1ccc(N2C[C@H](CNC(=O)c3ccc(Cl)s3)OC2=O)cc1` [Example 1, 2-({4-[(5S)-5-({[(5-Chloro-2-thienyl)carbonyl]amino}methyl)-2-oxo-1,3-oxazolidin-3-yl]phenyl}-amino)ethoxy]acetic acid hydrochloride], the IC50 was determined as 32 nM.
In turn, `O=C(O)COCCN(C(=O)c1ccc(Cl)s1)c1ccc(N2C[C@H](CNC(=O)c3ccc(Cl)s3)OC2=O)cc1` [Example 3, [2-([(5-Chloro-2-thienyl)carbonyl]{4-[(5S)-5-({[(5-chloro-2-thienyl)carbonyl]amino}methyl)-2-oxo-1,3-oxazolidin-3-yl]phenyl}amino)ethoxy]acetic acid] yielded a half-inhibitory concentration (IC50) of 66 nM.
The same measure for `CC(C)CNC(=O)N(CCOCC(=O)O)c1ccc(N2C[C@H](CNC(=O)c3ccc(Cl)s3)OC2=O)cc1` [Example 4, {2-[{4-[(5S)-5-({[(5-Chloro-2-thienyl)carbonyl]amino}methyl)-2-oxo-1,3-oxazolidin-3-yl]phenyl}-(isobutylcarbamoyl)amino]ethoxy}acetic acid]: 59 nM.

Source of the values: US7932278B2, “2-aminoethoxyacetic acid derivatives and their use” (Bayer Schering Pharma Aktiengesellschaft, priority 2005, dated 2011).
